Source: ChEMBL document CHEMBL1208707, “T-type calcium channel blockers: spiro-piperidine azetidines and azetidinones-optimization, design and synthesis” (Bioorg Med Chem Lett, 2010)

Experiments:
Type in all cases: cell-based
[1] = target: T1, Voltage-dependent T-type calcium channel subunit alpha-1H (Homo sapiens, UniProt O95180); experiment: Inhibition of human CaV3.2 expressed in HEK293 cells at -100 mV membrane potential by whole cell path clamp method
[2] = target: T1, Voltage-dependent T-type calcium channel subunit alpha-1H; experiment: Inhibition of human CaV3.2 expressed in HEK293 cells at -100 mV membrane potential by Ionworks HT assay
[3] = target: Transient receptor potential cation channel subfamily V member 1 (Homo sapiens) (UniProt Q8NER1); experiment: Inhibition of TRPV1 expressed in HEK293 assessed as capsaicin activation cells at 3.3 ug/mL by FLIPR assay
Chain of Transient receptor potential cation channel subfamily V member 1 (Homo sapiens) (Q8NER1 whole entry): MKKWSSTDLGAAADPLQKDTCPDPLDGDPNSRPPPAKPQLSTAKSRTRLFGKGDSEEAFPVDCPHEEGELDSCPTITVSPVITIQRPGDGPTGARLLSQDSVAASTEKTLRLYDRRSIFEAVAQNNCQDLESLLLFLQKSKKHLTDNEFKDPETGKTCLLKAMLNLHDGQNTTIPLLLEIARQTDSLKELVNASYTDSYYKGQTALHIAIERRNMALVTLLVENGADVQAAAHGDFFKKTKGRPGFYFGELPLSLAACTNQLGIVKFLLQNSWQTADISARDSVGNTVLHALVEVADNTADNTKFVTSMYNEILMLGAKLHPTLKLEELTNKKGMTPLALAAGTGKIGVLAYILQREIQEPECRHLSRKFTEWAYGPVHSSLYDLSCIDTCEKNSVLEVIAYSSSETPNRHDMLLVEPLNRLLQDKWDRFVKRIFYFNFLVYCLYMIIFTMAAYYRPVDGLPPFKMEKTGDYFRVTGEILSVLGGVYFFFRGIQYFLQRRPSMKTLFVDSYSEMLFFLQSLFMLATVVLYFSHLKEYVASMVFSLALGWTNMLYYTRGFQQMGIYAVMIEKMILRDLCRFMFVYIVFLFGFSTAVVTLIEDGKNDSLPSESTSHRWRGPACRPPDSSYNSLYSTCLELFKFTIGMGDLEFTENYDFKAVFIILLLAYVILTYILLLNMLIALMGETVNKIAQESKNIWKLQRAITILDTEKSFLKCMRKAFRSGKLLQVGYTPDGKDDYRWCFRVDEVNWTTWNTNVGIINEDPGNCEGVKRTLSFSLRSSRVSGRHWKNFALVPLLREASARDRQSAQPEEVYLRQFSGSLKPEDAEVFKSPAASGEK

T1 sequence (O95180 whole entry): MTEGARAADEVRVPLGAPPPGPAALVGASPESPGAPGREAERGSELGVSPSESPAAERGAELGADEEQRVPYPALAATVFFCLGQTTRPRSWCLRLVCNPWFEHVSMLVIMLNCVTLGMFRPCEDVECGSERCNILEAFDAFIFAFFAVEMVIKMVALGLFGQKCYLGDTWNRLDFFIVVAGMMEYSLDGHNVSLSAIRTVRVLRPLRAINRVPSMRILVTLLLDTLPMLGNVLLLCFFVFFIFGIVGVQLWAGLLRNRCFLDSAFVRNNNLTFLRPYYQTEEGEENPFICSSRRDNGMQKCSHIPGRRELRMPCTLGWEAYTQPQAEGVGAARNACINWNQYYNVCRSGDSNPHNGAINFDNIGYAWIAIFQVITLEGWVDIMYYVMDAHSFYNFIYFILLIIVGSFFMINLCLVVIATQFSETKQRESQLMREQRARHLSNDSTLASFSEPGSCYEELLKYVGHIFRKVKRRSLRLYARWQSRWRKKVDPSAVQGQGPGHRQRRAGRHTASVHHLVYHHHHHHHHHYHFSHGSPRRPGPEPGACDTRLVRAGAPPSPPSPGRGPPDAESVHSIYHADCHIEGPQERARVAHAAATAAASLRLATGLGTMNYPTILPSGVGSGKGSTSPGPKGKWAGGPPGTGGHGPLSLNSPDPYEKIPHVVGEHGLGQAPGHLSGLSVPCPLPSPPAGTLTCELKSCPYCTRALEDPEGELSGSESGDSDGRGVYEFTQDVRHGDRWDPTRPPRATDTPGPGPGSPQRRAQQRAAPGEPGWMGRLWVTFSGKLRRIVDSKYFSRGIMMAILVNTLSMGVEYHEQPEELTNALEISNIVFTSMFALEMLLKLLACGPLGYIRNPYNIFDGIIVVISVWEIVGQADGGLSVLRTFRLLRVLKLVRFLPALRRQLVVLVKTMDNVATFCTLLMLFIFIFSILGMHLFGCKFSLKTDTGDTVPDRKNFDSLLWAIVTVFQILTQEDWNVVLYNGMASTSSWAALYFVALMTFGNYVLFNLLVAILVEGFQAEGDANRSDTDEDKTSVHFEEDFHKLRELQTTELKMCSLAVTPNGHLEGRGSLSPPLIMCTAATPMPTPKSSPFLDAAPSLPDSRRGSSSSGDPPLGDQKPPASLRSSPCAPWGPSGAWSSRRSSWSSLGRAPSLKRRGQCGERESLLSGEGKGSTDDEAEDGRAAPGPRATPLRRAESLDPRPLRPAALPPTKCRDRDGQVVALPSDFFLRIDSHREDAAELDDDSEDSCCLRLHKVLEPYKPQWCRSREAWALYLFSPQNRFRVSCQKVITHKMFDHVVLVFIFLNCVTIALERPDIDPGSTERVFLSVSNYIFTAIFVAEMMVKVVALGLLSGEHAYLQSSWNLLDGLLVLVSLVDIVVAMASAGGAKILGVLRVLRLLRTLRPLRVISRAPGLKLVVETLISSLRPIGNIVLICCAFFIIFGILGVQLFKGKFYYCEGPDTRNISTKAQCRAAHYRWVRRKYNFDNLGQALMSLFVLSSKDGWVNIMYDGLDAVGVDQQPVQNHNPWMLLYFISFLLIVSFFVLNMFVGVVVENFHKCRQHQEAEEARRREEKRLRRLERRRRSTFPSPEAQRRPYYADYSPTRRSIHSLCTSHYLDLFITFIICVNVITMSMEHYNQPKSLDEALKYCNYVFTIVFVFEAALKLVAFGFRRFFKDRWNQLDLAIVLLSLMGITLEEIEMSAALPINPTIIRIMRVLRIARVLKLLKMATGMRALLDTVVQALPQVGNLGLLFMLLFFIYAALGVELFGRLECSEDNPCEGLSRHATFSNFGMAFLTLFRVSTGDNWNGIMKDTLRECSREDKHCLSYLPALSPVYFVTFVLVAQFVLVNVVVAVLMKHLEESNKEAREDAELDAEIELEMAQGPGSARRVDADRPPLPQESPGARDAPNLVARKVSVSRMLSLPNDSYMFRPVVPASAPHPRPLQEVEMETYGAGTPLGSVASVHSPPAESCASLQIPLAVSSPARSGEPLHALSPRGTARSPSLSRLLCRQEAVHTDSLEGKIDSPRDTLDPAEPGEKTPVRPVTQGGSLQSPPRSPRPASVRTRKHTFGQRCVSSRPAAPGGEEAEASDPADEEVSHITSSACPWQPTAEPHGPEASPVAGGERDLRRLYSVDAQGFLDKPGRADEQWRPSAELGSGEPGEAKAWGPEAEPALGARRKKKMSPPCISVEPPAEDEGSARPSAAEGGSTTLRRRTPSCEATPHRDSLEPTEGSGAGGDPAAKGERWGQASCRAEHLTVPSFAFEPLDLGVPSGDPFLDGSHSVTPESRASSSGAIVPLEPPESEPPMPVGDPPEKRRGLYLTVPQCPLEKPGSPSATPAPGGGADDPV

Row | Structure (SMILES) | IC50 [1] | IC50 [2] | inhibition [3]
1 | N#Cc1cccc(N2C(=O)C3(CCN(C(=O)Nc4cc(F)cc(F)c4)CC3)C2c2ccccn2)c1 (centres undefined) | 19300 nM | – | –
2 | COC(=O)[C@H](CO)NC(=O)N1CCC2(CC1)C(=O)N(c1cccc(F)c1)C2c1ccc(Cl)cc1 (some centres undefined) | – | 3330 nM | 6%
3 | CCC(C)NC(=O)N1CCC2(CC1)C(=O)N(c1cccc(F)c1)C2c1ccc(Cl)cc1 (centres undefined) | – | 1250 nM | 5.2%
4 | CC[C@H](C)[C@H](NC(=O)N1CCC2(CC1)C(=O)N(c1cccc(F)c1)C2c1ccc(Cl)cc1)C(=O)OC#N (some centres undefined) | 17000 nM | 35 nM | –
5 | CC[C@H](C)[C@H](NC(=O)N1CCC2(CC1)C(=O)N(c1cccc(F)c1)C2c1ccc(Cl)cc1)C(=O)NC (some centres undefined) | – | – | 4.8%
6 | CC[C@H](C)[C@H](NC(=O)N1CCC2(CC1)C(=O)N(c1cccc(F)c1)C2c1ccc(Cl)cc1)C(=O)OC(C)C (some centres undefined) | – | – | 18%
7 | COC(=O)[C@H](COC(C)(C)C)NC(=O)N1CCC2(CC1)C(=O)N(c1cccc(F)c1)C2c1ccc(Cl)cc1 (some centres undefined) | – | – | 4.4%
8 | CC[C@H](C)[C@H](NC(=O)N1CCC2(CC1)CN(C)C2c1ccc(Cl)cc1)C(=O)OC (mixture of isomers) | – | 410 nM | 25.2%
9 | CC[C@H](C)[C@H](NC(=O)N1CCC2(CC1)C(=O)N(C)C2c1ccc(Cl)cc1)C(=O)OC (mixture of isomers) | – | 800 nM | 3.12%
10 | CC[C@H](C)[C@H](NC(=O)N1CCC2(CC1)CN(C(C)C)C2c1ccc(F)cc1)C(=O)OC (mixture of isomers) | – | 256 nM | 13.4%
11 | CC[C@H](C)[C@H](NC(=O)N1CCC2(CC1)CN(C1CC1)C2c1ccc(Cl)cc1)C(=O)OC (mixture of isomers) | 713 nM | 325 nM | –
12 | N#Cc1cccc(N2C(=O)C3(CCN(C(=O)Nc4cc(F)cc(F)c4)CC3)C2c2ccccn2)c1 (racemic) | – | 2380 nM | –
13 | CN1CC2(CCN(C(=O)Nc3cc(F)cc(F)c3)CC2)C1c1ccc(Cl)cc1 (racemic) | – | 214 nM | 25%
14 | CC(C)CN1CC2(CCN(C(=O)Nc3cc(F)cc(F)c3)CC2)C1c1ccc(Cl)cc1 (racemic) | – | 177 nM | 53%
15 | O=C(Nc1cc(F)cc(F)c1)N1CCC2(CC1)C(=O)N(C1CC1)C2c1ccc(Cl)cc1 (racemic) | – | 2260 nM | 34.2%
16 | O=C(Nc1cc(F)cc(F)c1)N1CCC2(CC1)C(=O)N(c1cncc(Cl)c1)C2c1ccccn1 (racemic) | – | – | 6.7%
17 | CC[C@H](C)[C@H](NC(=O)N1CCC2(CC1)CN(C(C)C)C2c1ccc(Cl)cc1)C(=O)OC (stereo in doubt; 2) | – | – | 87.1%
18 | CC[C@H](C)[C@H](NC(=O)N1CCC2(CC1)CN(C(C)C)C2c1ccc(Cl)cc1)C(=O)OC (stereo in doubt; 2a) | 124 nM | 115 nM | –
19 | CC[C@H](C)[C@H](NC(=O)N1CCC2(CC1)CN(C(C)C)C2c1ccc(Cl)cc1)C(=O)OC (stereo in doubt; 2b) | 3200 nM | 733 nM | –
20 | CC[C@H](C)[C@H](NC(=O)N1CCC2(CC1)CN(c1cccc(F)c1)C2c1ccc(Cl)cc1)C(=O)OC (stereo in doubt; 22a) [listing 1 of 2 here] | – | 146 nM | –
21 | CC[C@H](C)[C@H](NC(=O)N1CCC2(CC1)CN(c1cccc(F)c1)C2c1ccc(Cl)cc1)C(=O)OC (stereo in doubt; 22a) [listing 2 of 2 here] | – | – | 8.5%
22 | CC[C@H](C)[C@H](NC(=O)N1CCC2(CC1)CN(c1cccc(F)c1)C2c1ccc(Cl)cc1)C(=O)OC (stereo in doubt; 22b) [listing 1 of 2 here] | – | 3200 nM | –
23 | CC[C@H](C)[C@H](NC(=O)N1CCC2(CC1)CN(c1cccc(F)c1)C2c1ccc(Cl)cc1)C(=O)OC (stereo in doubt; 22b) [listing 2 of 2 here] | – | – | 12.5%

Row | Structure (SMILES) | IC50 [1] | IC50 [2] | inhibition [3]
24 | CC[C@H](C)[C@H](NC(=O)N1CCC2(CC1)C(=O)N(c1cccc(F)c1)C2c1ccc(Cl)cc1)C(=O)OC (stereo in doubt; 23a) [listing 1 of 2 here] | 109 nM | 45 nM | –
25 | CC[C@H](C)[C@H](NC(=O)N1CCC2(CC1)C(=O)N(c1cccc(F)c1)C2c1ccc(Cl)cc1)C(=O)OC (stereo in doubt; 23a) [listing 2 of 2 here] | – | – | 6.18%
26 | CC[C@H](C)[C@H](NC(=O)N1CCC2(CC1)C(=O)N(c1cccc(F)c1)C2c1ccc(Cl)cc1)C(=O)OC (stereo in doubt; 23b) [listing 1 of 2 here] | – | 872 nM | –
27 | CC[C@H](C)[C@H](NC(=O)N1CCC2(CC1)C(=O)N(c1cccc(F)c1)C2c1ccc(Cl)cc1)C(=O)OC (stereo in doubt; 23b) [listing 2 of 2 here] | – | – | 8.79%
28 | O=C(Nc1cc(F)cc(F)c1)N1CCC2(CC1)CN(c1cccc(F)c1)C2c1ccc(Cl)cc1 (stereo in doubt; 35a) [listing 1 of 2 here] | – | 3500 nM | –
29 | O=C(Nc1cc(F)cc(F)c1)N1CCC2(CC1)CN(c1cccc(F)c1)C2c1ccc(Cl)cc1 (stereo in doubt; 35a) [listing 2 of 2 here] | – | – | 6.22%
30 | O=C(Nc1cc(F)cc(F)c1)N1CCC2(CC1)CN(c1cccc(F)c1)C2c1ccc(Cl)cc1 (stereo in doubt; 35b) [listing 1 of 2 here] | – | 3200 nM | –
31 | O=C(Nc1cc(F)cc(F)c1)N1CCC2(CC1)CN(c1cccc(F)c1)C2c1ccc(Cl)cc1 (stereo in doubt; 35b) [listing 2 of 2 here] | – | – | 30.1%
32 | O=C(Nc1cc(F)cc(F)c1)N1CCC2(CC1)C(=O)N(c1cccc(F)c1)C2c1ccc(Cl)cc1 (stereo in doubt; 36a) [listing 1 of 2 here] | – | 586 nM | –
33 | O=C(Nc1cc(F)cc(F)c1)N1CCC2(CC1)C(=O)N(c1cccc(F)c1)C2c1ccc(Cl)cc1 (stereo in doubt; 36a) [listing 2 of 2 here] | – | – | 19.3%
34 | O=C(Nc1cc(F)cc(F)c1)N1CCC2(CC1)C(=O)N(c1cccc(F)c1)C2c1ccc(Cl)cc1 (stereo in doubt; 36b) | – | – | 6.79%
35 | N#Cc1cccc(NC(=O)N2CCC3(CC2)C(=O)N(c2cccc(F)c2)C3c2ccc(Cl)cc2)c1 (stereo in doubt; 37a) | – | – | 4.79%
36 | N#Cc1cccc(NC(=O)N2CCC3(CC2)C(=O)N(c2cccc(F)c2)C3c2ccc(Cl)cc2)c1 (stereo in doubt; 37b) [listing 1 of 2 here] | – | 1060 nM | –
37 | N#Cc1cccc(NC(=O)N2CCC3(CC2)C(=O)N(c2cccc(F)c2)C3c2ccc(Cl)cc2)c1 (stereo in doubt; 37b) [listing 2 of 2 here] | – | – | 12.7%
38 | O=C(Nc1cc(F)cc(F)c1)N1CCC2(CC1)C(=O)N(c1ccc(F)c(Cl)c1)C2c1ccccn1 (stereo in doubt; 39b) | – | 176 nM | –
39 | O=C(Nc1ccc(F)c(F)c1)N1CCC2(CC1)C(=O)N(c1ccc(F)c(Cl)c1)C2c1ccccn1 (stereo in doubt; 40a) | – | – | 48%
40 | O=C(Nc1ccc(F)c(F)c1)N1CCC2(CC1)C(=O)N(c1ccc(F)c(Cl)c1)C2c1ccccn1 (stereo in doubt; 40b) [listing 1 of 2 here] | – | 402 nM | –
41 | O=C(Nc1ccc(F)c(F)c1)N1CCC2(CC1)C(=O)N(c1ccc(F)c(Cl)c1)C2c1ccccn1 (stereo in doubt; 40b) [listing 2 of 2 here] | – | – | 39%
42 | O=C(Nc1cccc(C(F)(F)F)c1)N1CCC2(CC1)C(=O)N(c1ccc(F)c(F)c1)C2c1ccccn1 (stereo in doubt; 41a) | – | 17 nM | –
43 | O=C(Nc1ccc(F)c(F)c1)N1CCC2(CC1)C(=O)N(c1cccc(Cl)c1)C2c1ccccn1 (stereo in doubt; 42b) | – | – | 89%
44 | N#Cc1cccc(NC(=O)N2CCC3(CC2)C(=O)N(c2cccc(Cl)c2)C3c2ccccn2)c1 (stereo in doubt; 43a) | – | – | 30%
45 | O=C(Nc1cc(F)cc(F)c1)N1CCC2(CC1)C(=O)N(c1cccc(Cl)c1)C2c1ccccn1 (stereo in doubt; 44a) | – | – | 38%
46 | O=C(Nc1ccc(F)c(F)c1)N1CCC2(CC1)C(=O)N(c1cccc(Cl)c1)C2c1cccc[n+]1[O-] (stereo in doubt; form 2) | – | 1500 nM | –
